Values joined by “and” are separate entries in the source; they are usually repeats but may differ in a detail not shown here. Equal entries are not always repeated. Toxic doses and inconclusive results are not listed. The calls were made as follows: active = survival T/C of 150% or more; inactive = T/C below 125% in these data.
Tested on: BDF1 mice, P388 leukemia ip, median survival T/C
Test: NCI In Vivo Anticancer Drug Screen. Data for tumor model P388 Leukemia (intraperitoneal) in B6D2F1 (BDF1) mice
Settings: endpoint: median survival time, higher = longer survival
Procedure, shortened: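 Each value expresses how treatment altered survival: treated-mouse outcome over vehicle-mouse outcome, both groups bearing the transplanted tumour.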

[1] = dose: 50.0 mg/kg/injection, schedule: Q04DX003 (ip), vehicle: saline with Tween-80
[2] = dose: 100.0 mg/kg/injection, schedule: Q01DX009 (ip), vehicle: saline
[3] = dose: 200.0 mg/kg/injection, schedule: Q01DX009 (ip), vehicle: saline
[4] = dose: 400.0 mg/kg/injection, schedule: Q01DX009 (ip), vehicle: saline
[5] = dose: 100.0 mg/kg/injection, schedule: Q01DX001 (ip), vehicle: saline with Tween-80
[6] = dose: 200.0 mg/kg/injection, schedule: Q01DX001 (ip), vehicle: saline with Tween-80
[7] = dose: 400.0 mg/kg/injection, schedule: Q01DX001 (ip), vehicle: saline with Tween-80
[8] = dose: 50.0 mg/kg/injection, schedule: Q01DX009 (ip), vehicle: saline with Tween-80
[9] = dose: 100.0 mg/kg/injection, schedule: Q01DX009 (ip), vehicle: saline with Tween-80
[10] = dose: 100.0 mg/kg/injection, schedule: Q04DX003 (ip), vehicle: saline with Tween-80
[11] = dose: 200.0 mg/kg/injection, schedule: Q04DX003 (ip), vehicle: saline with Tween-80
[12] = dose: 400.0 mg/kg/injection, schedule: Q04DX003 (ip), vehicle: saline with Tween-80
[13] = dose: 25.0 mg/kg/injection, schedule: Q01DX009 (ip), vehicle: saline with Tween-80
[14] = dose: 6.25 mg/kg/injection, schedule: Q01DX009 (ip), vehicle: saline with Tween-80
[15] = dose: 75.0 mg/kg/injection, schedule: Q01DX009 (ip), vehicle: saline with Tween-80
[16] = dose: 150.0 mg/kg/injection, schedule: Q01DX009 (ip), vehicle: saline with Tween-80
[17] = dose: 300.0 mg/kg/injection, schedule: Q01DX009 (ip), vehicle: saline with Tween-80

Measured: T/C

C/C(=N/N)c1ccc(Br)cc1
inactive: dose: 3.0 mg/kg/injection, schedule: Q01DX009 (ip), vehicle: saline with Tween-80 103 % of control | dose: 6.0 mg/kg/injection, schedule: Q01DX009 (ip), vehicle: saline with Tween-80 92 % of control | dose: 22.0 mg/kg/injection, schedule: Q04DX003 (ip), vehicle: saline with Tween-80 118 % of control | dose: 34.0 mg/kg/injection, schedule: Q04DX003 (ip), vehicle: saline with Tween-80 118 % of control and 122 % of control | [1] 122 % of control

COC(CN(C)CC(OC)OC)OC
inactive: [2] 90 % of control | [3] 100 % of control | [4] 100 % of control

CC1(C)CCCC(C(Cc2ccc3ccccc3n2)c2ccccc2)C1=O (stereo not given)
inactive: [5] 98 % of control | [6] 96 % of control | [7] 88 % of control

CC(C)C(=O)[O][Sn]([CH3])([CH3])[CH3]
inactive: dose: 0.75 mg/kg/injection, schedule: Q01DX009 (ip), vehicle: saline 100 % of control | dose: 1.5 mg/kg/injection, schedule: Q01DX009 (ip), vehicle: saline 91 % of control

Ic1ccc(N=Cc2cccs2)cc1
inactive: [8] 117 % of control | [9] 99 % of control | dose: 200.0 mg/kg/injection, schedule: Q01DX009 (ip), vehicle: saline with Tween-80 97 % of control | dose: 400.0 mg/kg/injection, schedule: Q01DX009 (ip), vehicle: saline with Tween-80 108 % of control

C=C1C(O)C2(O)OCC34C(CC5C(C)=CC(=O)C(O)C5(C)C23)OC(=O)C(O)C14 (stereo not given)
inactive: dose: 0.06 mg/kg/injection, schedule: Q01DX009 (ip), vehicle: saline 95 % of control | dose: 0.25 mg/kg/injection, schedule: Q01DX009 (ip), vehicle: saline 106 % of control | dose: 1.0 mg/kg/injection, schedule: Q01DX009 (ip), vehicle: saline 98 % of control

CCOc1ccccc1NC1=C(OC)C(=O)C(Nc2ccccc2OCC)=C(OC)C1=O
inactive: dose: 100.0 mg/kg/injection, schedule: Q01DX009 (ip), vehicle: Klucel (hydroxypropylcellulose) (HPC) 100 % of control | dose: 100.0 mg/kg/injection, schedule: Q04DX003 (ip), vehicle: Klucel (hydroxypropylcellulose) (HPC) 91 % of control | dose: 200.0 mg/kg/injection, schedule: Q01DX009 (ip), vehicle: Klucel (hydroxypropylcellulose) (HPC) 95 % of control | dose: 200.0 mg/kg/injection, schedule: Q04DX003 (ip), vehicle: Klucel (hydroxypropylcellulose) (HPC) 91 % of control and 100 % of control | dose: 400.0 mg/kg/injection, schedule: Q01DX009 (ip), vehicle: Klucel (hydroxypropylcellulose) (HPC) 100 % of control | dose: 400.0 mg/kg/injection, schedule: Q04DX003 (ip), vehicle: Klucel (hydroxypropylcellulose) (HPC) 86 % of control

Cc1ccc(NC(=O)c2ccccc2Cl)cc1C
inactive: [10] 104 % of control | [11] 113 % of control | [12] 109 % of control

O=c1[nH]cnc2c1ncn2C1OC(CF)C(O)C1O (stereo not given)
inactive: dose: 100.0 mg/kg/injection, schedule: Q01DX001 (ip), vehicle: saline 108 % of control | [2] 86 % of control | dose: 200.0 mg/kg/injection, schedule: Q01DX001 (ip), vehicle: saline 108 % of control | [3] 91 % of control | dose: 400.0 mg/kg/injection, schedule: Q01DX001 (ip), vehicle: saline 108 % of control | [4] 86 % of control

COC(=O)c1ncccc1C(=O)O
inactive: [13] 86 % of control | [8] 95 % of control | [9] 90 % of control

Cc1cc(NC(=O)c2ccc(Cl)cc2)ccc1Cl
inactive: [5] 100 % of control | [6] 86 % of control | [7] 95 % of control

NNC(=O)c1ccc(Cl)c(Cl)c1
inactive: [14] 113 % of control | dose: 12.5 mg/kg/injection, schedule: Q01DX009 (ip), vehicle: saline with Tween-80 86 % of control | dose: 12.5 mg/kg/injection, schedule: Q04DX003 (ip), vehicle: saline with Tween-80 98 % of control | [13] 89 % of control | dose: 25.0 mg/kg/injection, schedule: Q04DX003 (ip), vehicle: saline with Tween-80 107 % of control | [8] 104 % of control | [1] 107 % of control | dose: 100.0 mg/kg/injection, schedule: Q01DX001 (ip), vehicle: saline sonified 91 % of control | [9] 97 % of control | [10] 107 % of control | dose: 200.0 mg/kg/injection, schedule: Q01DX001 (ip), vehicle: saline sonified 100 % of control | [11] 107 % of control

ClCCCCCCCCc1ccccc1
inactive: dose: 12.5 mg/kg/injection, schedule: Q01DX009 (ip), vehicle: saline 102 % of control | dose: 25.0 mg/kg/injection, schedule: Q01DX009 (ip), vehicle: saline 100 % of control | dose: 44.0 mg/kg/injection, schedule: Q04DX003 (ip), vehicle: saline with Tween-80 122 % of control | dose: 50.0 mg/kg/injection, schedule: Q01DX009 (ip), vehicle: saline 107 % of control | dose: 66.0 mg/kg/injection, schedule: Q04DX003 (ip), vehicle: saline with Tween-80 100 % of control | [2] 100 % of control | [10] 118 % of control | [3] 108 % of control

COC(=N)CCCCCC(=N)OC
inactive: dose: 50.0 mg/kg/injection, schedule: Q01DX005 (ip), vehicle: saline 92 % of control | dose: 100.0 mg/kg/injection, schedule: Q01DX005 (ip), vehicle: saline 97 % of control | dose: 200.0 mg/kg/injection, schedule: Q01DX005 (ip), vehicle: saline 87 % of control

CCOC(=O)NC
inactive: [2] 104 % of control | [3] 100 % of control | [4] 112 % of control

CCOC(=O)CNCc1cccnc1
inactive: dose: 100.0 mg/kg/injection, schedule: Q04DX003 (ip), vehicle: saline 120 % of control | dose: 200.0 mg/kg/injection, schedule: Q04DX003 (ip), vehicle: saline 117 % of control | dose: 400.0 mg/kg/injection, schedule: Q04DX003 (ip), vehicle: saline 118 % of control

Cc1cc(=O)[nH]c2c1CCCC2
inactive: dose: 37.5 mg/kg/injection, schedule: Q01DX009 (ip), vehicle: saline with Tween-80 92 % of control | [15] 99 % of control and 118 % of control | [16] 103 % of control | [17] 91 % of control

O=C(NC(CO)C(O)c1ccc([N+](=O)[O-])cc1)C(Cl)Cl (stereo not given)
inactive: [10] 104 % of control | [11] 100 % of control | [12] 109 % of control

CCN(CC)c1ccc(/C=C/c2ccnc3ccccc23)cc1
inactive: dose: 1.56 mg/kg/injection, schedule: Q01DX009 (ip), vehicle: saline with Tween-80 95 % of control | dose: 3.13 mg/kg/injection, schedule: Q01DX009 (ip), vehicle: saline with Tween-80 105 % of control | [14] 90 % of control

C=C1C(=O)OC2/C=C(\C)C3(O)OC(C)(CC(OC(=O)C(C)C)C12)CC3O (stereo not given)
inactive: dose: 10.0 mg/kg/injection, schedule: Q01DX009 (ip), vehicle: saline 96 % of control | dose: 40.0 mg/kg/injection, schedule: Q01DX009 (ip), vehicle: saline 96 % of control

CCC(=O)N(c1ccccc1)c1ccccc1
inactive: [15] 99 % of control | [16] 100 % of control | [17] 108 % of control

From PubChem BioAssay AID328 (DTP/NCI, 2004)
